Reference: paper PMC12040169 (PLOS Biology, 2025)

Assay: in vitro
Conditions: human, hela cells, % viability

Compared with `O=C(c1ccccc1)N1CCC(c2nnc(-c3ccsc3)o2)CC1` [CBK283371], `CCCC(=O)N1CCC(c2nnc(-c3ccsc3)o2)CC1` [CBK283377] is lower in viability at 28.5 h, 10 µM: 88.5% for the first, 85.5% for the second.

Compared with `CC(=O)N1C[C@@H](c2cccc(C)c2)[C@@H]2CN(CC3CC3)CC[C@@H]21` [CBK283372], `CC(C)C(=O)N1C[C@H]2CCc3nnc(-c4ccccc4)n3[C@H]2C1` [CBK283438] is lower in viability at 28.5 h, 10 µM: 103% for the first, 88% for the second.

Going from `COCc1ccc(C(=O)N2CCC(c3cc4ncccc4[nH]3)CC2)o1` [CBK283373] to `O=C(c1ccccc1F)N1CCC(c2cc3ncccc3[nH]2)CC1` [CBK283391], the viability at 28.5 h, 10 µM falls from 102% to 86.5%.

Going from `O=C(Cc1cccc(F)c1)N1CCC(c2cc3ncccc3[nH]2)CC1` [CBK283374] to `COc1cccc(CC(=O)N2CCCC(c3cc4ncccc4[nH]3)C2)c1` (centres unmarked) [CBK283426], the viability at 28.5 h, 10 µM falls from 100% to 94.1%.

Compared with `CC(C)(C)C(=O)N1CCC(c2nnc(-c3ccsc3)o2)CC1` [CBK283378], `O=C(C1CCC1)N1CCC(c2nnc(-c3ccsc3)o2)CC1` [CBK283405] is higher in viability at 28.5 h, 10 µM: 89.5% for the first, 104% for the second.

Going from `O=C(CC1CCCC1)N1CCC(c2nnc(-c3ccsc3)o2)CC1` [CBK283381] to `O=C(C1CCCC1)N1CCCCC1c1n[nH]cc1-c1ccncc1` (centres unmarked) [CBK283427], the viability at 28.5 h, 10 µM falls from 106% to 90.4%.

Compared with `Cc1ccc(C2=CCN(CC(=O)Nc3ncc(C)s3)CC2)o1` [CBK283383], `Cc1nc(C)c(C(=O)N2CCC(c3cc4ncccc4[nH]3)CC2)s1` [CBK283396] is higher in viability at 28.5 h, 10 µM: 90% for the first, 101% for the second.

Compared with `CC(C)NC(=O)N[C@H]1CC[C@]2(CC1)CC(=O)c1ccccc1O2` [CBK283389], `O=C(c1cc(C2CCCN(Cc3ccccc3)C2)no1)N1CCCC1` (centres unmarked) [CBK283395] is lower in viability at 28.5 h, 10 µM: 111% for the first, 89.7% for the second.

First: O=S(=O)(c1ccccc1)N1CCC(c2cc3ncccc3[nH]2)CC1 [CBK283397]
Second: COc1ccccc1CC(=O)N1CCCC(c2cc3ncccc3[nH]2)C1 (centres unmarked) [CBK283417]
The viability at 28.5 h, 10 µM of the first is higher: 104% for the first, 95.4% for the second.

First: Cn1cc2c(n1)[C@H]1CN(C(=O)c3cc(C(F)(F)F)nn3C)C[C@H]1C2 [CBK283400]
Second: CC(C)(C)n1cc2c(n1)[C@H]1CN(C(=O)CN3CCCC3=O)C[C@H]1CC2 [CBK283401]
The viability at 28.5 h, 10 µM of the first is higher: 93.8% for the first, 89.2% for the second.

Compared with `Cc1cc(O)cc(C2CCCN(C(=O)c3ccc(F)c(F)c3)C2)n1` (centres unmarked) [CBK283406], `Cc1c(C(=O)N2CCCC(c3cc4ncccc4[nH]3)C2)cnn1C` (centres unmarked) [CBK283420] is lower in viability at 28.5 h, 10 µM: 105% for the first, 94.8% for the second.

Going from `Cc1noc(-c2cn(C)nc2C2CCCCN2C(=O)C2CC2)c1C` (centres unmarked) [CBK283410] to `O=C(C1CCCCC1)N1CCCC1c1n[nH]cc1-c1ccncc1` (centres unmarked) [CBK283434], the viability at 28.5 h, 10 µM falls from 96.9% to 87.2%.

Compared with `Cn1nccc1C(=O)N1CCCC(c2cc3ncccc3[nH]2)C1` (centres unmarked) [CBK283413], `O=C(Cc1ccc(F)cc1)N1CCCC(c2cc3ncccc3[nH]2)C1` (centres unmarked) [CBK283414] is higher in viability at 28.5 h, 10 µM: 104% for the first, 109% for the second.

Going from `Cc1ccc(CC(=O)N2CCCC2c2n[nH]cc2-c2ccncc2)cc1` (centres unmarked) [CBK283424] to `Cc1cccc(CC(=O)N2CCCC2c2n[nH]cc2-c2ccncc2)c1` (centres unmarked) [CBK283447], the viability at 28.5 h, 10 µM falls from 106% to 90.7%.

Compared with `O=C(c1ccccc1F)N1CCCC1c1n[nH]cc1-c1ccncc1` (centres unmarked) [CBK283428], `O=C(c1cccc(F)c1)N1CCCC1c1n[nH]cc1-c1ccncc1` (centres unmarked) [CBK283437] is higher in viability at 28.5 h, 10 µM: 87.7% for the first, 93.2% for the second.

Compared with `CC(C)(C)CC(=O)N1CCCC1c1n[nH]cc1-c1ccncc1` (centres unmarked) [CBK283430], `O=C(CCc1ccccc1)N1CCCC1c1n[nH]cc1-c1ccncc1` (centres unmarked) [CBK283436] is higher in viability at 28.5 h, 10 µM: 88.5% for the first, 91.4% for the second.

Compared with `CCC(CC)C(=O)N1C[C@H]2CCc3nnc(-c4ccccc4)n3[C@H]2C1` [CBK283439], `CC(=O)Nc1ccc(Oc2cc(C)nc(C3CCCNC3)c2)cc1` (centres unmarked) [CBK283443] is higher in viability at 28.5 h, 10 µM: 86.7% for the first, 88.1% for the second.

With `COCc1ccc(C(=O)N2CCC(c3cc4cnccc4[nH]3)CC2)cc1` [CBK283448] the viability at 28.5 h, 10 µM was 99.3%.
